Several values for one entry are separate records, joined by “and”; a condition that tells them apart may be missing. Identical values can stand only once. Like-named read-outs stand apart in the source and are kept apart here.
Key:
BCL-2 = BCL-2 (Homo sapiens (Human), UniProt P10415); assay: Protein-protein interaction assay BCL-2/Bad BH3 peptide (BCL-2 assay), TR-FRET; format: binding; settings: BCL-2/Bad BH3 peptide TR-FRET; median
Method: Assay 3 Protein-Protein Interaction assay: BCL-2/Bad BH3 Peptide (BCL-2 Assay)
The dose-dependent inhibition by the compounds described in this invention of the interaction between BCL-2 and the BH3 domain of Bad (both human) was determined using a steady state binding competition assay with time-resolved fluorescence energy transfer (TR-FRET) readout. For that purpose BCL-2 (amino acids 1-211, C-terminal fused to a hexahistidine (6× His) tag (SEQ ID 5) and a synthetic Bad BH3-derived peptide of sequence Biotin-PEG2-PEG2-NLWAAQRYGRELRR-Nle-SDEFVDSFKK-amide (SEQ ID 4) served as protein receptor and tracer ligand respectively. The recombinant BCL-2 protein (expressed in E. coli) was purchased from BPS Bioscience (San Diego, Calif., USA). The Bad BH3-derived peptide can be obtained from e.g. Biosyntan (Berlin, Germany).
In the assay 11 different concentrations of each compound (0.1 nM, 0.33 nM, 1.1 nM, 3.8 nM, 13 nM, 44 nM, 0.15 μM, 0.51 μM, 1.7 μM, 5.9 μM and 20 μM) were typically measured as duplicates in the same microtiter plate. For that, 100-fold concentrated DMSO solutions were prepared by serial dilutions (1:3.4) of a 2 mM stock solution in a clear, 384-well microtiter plate (Greiner Bio-One, Frickenhausen, Germany). From there, 50 nl were transferred in a dark test plate (Greiner Bio-One, Frickenhausen, Germany). The assay was initiated by addition of 2 μl of a 2,5-fold concentrated His-BCL-2 solution (usually for a 1 nM end concentration in 5 μl reaction volume) in aqueous assay buffer [50 mM Tris/HCl pH 7, 100 mM sodium chloride (NaCl), 50 mM potassium fluoride (KF), 0.005% Tween-20, 2 mM DTT, 0.1% bovine gamma globulin (BGG)] to the compounds in the assay plate. This was followed by a 10-minute incubation step at 22° C. for pre-equilibration of the putative complex between His-BCL-2 and the compounds. After that, 3 μl of a 1.67-fold concentrated solution (in assay buffer) consisting of Bad BH3-derived peptide (1 nM end concentration) and TR-FRET detection reagents [1.67 nM anti-His-Eu cryptate and 1.67 nM streptavidin-XL665 (both from Cisbio Bioassays, Codolet, France)], were added.
The mixture was incubated in the dark for one hour at 22° C. and then overnight at 4° C. The formation of BCL-2/Bad complexes was determined by measuring the resonance energy transfer of the anti-His-Eu-cryptate antibody to the streptavidin-XL665 present in the reaction. For that purpose, the fluorescence emission at 620 nm and 665 nm after excitation at 330-350 nm was measured in a TR-FRET measuring instrument, for instance a Rubystar or a Pherastar (both from BMG Lab Technologies, Offenburg, Germany) or a Viewlux (Perkin-Elmer). The ratio of the emission at 665 nm and at 622 nm was used as indicator of the amount of BCL-2/Bad complexes present.
The resulting data (ratio) were normalized, taking 0% inhibition as the mean value of control measurements (usually 32 data points) where all reagents were included. In this case 50 nl DMSO were used instead of compounds. A 100% inhibition corresponded to the mean value of control measurements (usually 32 data points) where all reagents except BCL-2 were included. IC50 values were determined by regression analysis based on a 4 parameter equation (minimum, maximum, IC50, Hill; Y=Max+(Min−Max)/(1+(X/IC50)^Hill) using the Screener Software (Genedata).

MV-4-11 = assay: Antiproliferation assay MV-4-11 (Assay 7); format: cell-based; settings: MV-4-11 cells, CellTiter-Glo, single determinations, read-out: IC50 Antiproli MV-4-11
In short: (§1)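 Cells plated in treatment plates plus a day 0 reference plate; incubated 72 h at 37 °C; CellTiter-Glo added, 10 min incubation, luminescence read; day 0 plate read at time zero.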

AMO-1 = assay: Antiproliferation assay AMO-1 (Assay 7); format: cell-based; settings: AMO-1 cells, CellTiter-Glo, single determinations, read-out: IC50 Antiproli AMO-1
In short: as §1

SUDHL5 = assay: Induction of cytotoxicity, SUDHL5 (Assay 6); settings: read-out: IC50 Cytotox SUDHL5 [M] (median), SUDHL5 cells, 5 h, CellTiter-Glo
Method: In principle, compounds that induce apoptosis will concomitantly induce cell cytotoxicity. Therefore, cytotoxicity assays were run in parallel in SUDHL5 and SUDHL10 cells.
The different cell lines were plated in culture medium (RPMI 1640 [GIBCO #22400-089] supplemented with 10% Fetal Bovine Serum) at a density of 3,300 cells in 30 μl/well in a sterile, solid black, flat bottom, polystyrene, TC-treated 384-well microplate (Corning #3571) using Multidrop Combi Reagent Dispenser. As a control, medium without cells was also added to the plate. Cells were incubated in a humidified incubator at 37° C. overnight. On the next day, the cells were treated with compounds (stock solution, 10 mM in DMSO) using the HP D300 Digital Dispenser in a concentration range of 3.3×10e-5 M (33 μM) to 5×10e-9 M (5 nM) in a single-dot curve with at least 16 dilutions and a DMSO concentration of 0.33%. Rim wells were excluded. The cells were incubated for 5 h hours in a humidified incubator at 37° C. After this incubation, 30 μl of CellTiter-Glo® Luminescent Cell Viability reagent (Promega, G7573) was added to each well using the Multidrop Combi Reagent Dispenser, followed by 15 min incubation on a shaker at room temperature. Finally, luminescence was read at 0.1 ms, with a gain of 3000 using the PHERAstar FS microplate reader (BMG Labtech).
The Bella DRC Master Sheet was used to calculate IC50s, with fixed CI=0 and C0=1.

BCL-2, sequence (P10415 1-211): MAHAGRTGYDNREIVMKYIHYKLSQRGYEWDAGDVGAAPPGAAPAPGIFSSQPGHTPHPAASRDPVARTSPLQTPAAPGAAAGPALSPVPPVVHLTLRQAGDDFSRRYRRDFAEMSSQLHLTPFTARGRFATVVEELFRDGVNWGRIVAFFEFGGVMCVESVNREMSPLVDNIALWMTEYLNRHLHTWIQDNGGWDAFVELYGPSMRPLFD

| SMILES | IC50 (BCL-2) | IC50 (MV-4-11; Homo sapiens, MV4-11, 72 h) | IC50 (MV-4-11; 72 h) | IC50 (AMO-1; 72 h) | IC50 (AMO-1; Homo sapiens, AMO1, 72 h) | IC50 (SUDHL5; Homo sapiens, SU-DHL-5, 5 h) | IC50 (SUDHL5) |
| --- | --- | --- | --- | --- | --- | --- | --- |
| Cc1c2c(nn1C)COCCCCn1c(C(=O)O)c(CCCOc3cccc4c3CCCC4)c3ccc(F)c-2c31 (racemic) [Example 18, (rac)-13-fluoro-11,12-dimethyl-1-(3-((5,6,7,8-tetrahydronaphthalen-1-yl)oxy)propyl)-4,5,6,7,9,11-hexahydropyrazolo[4′,3′:9,10][1]oxa[6]azacycloundecino[8,7,6-hi]indole-2-carboxylic acid] | > 20 µM | 3.53 µM | 2.89 µM and 5.61 µM | 2.16 µM and 3.19 µM | 3.98 µM | 8.8e-07 M |  |
| Cc1c2c(nn1C)COCCCCn1c(C(=O)O)c(CCCOc3cccc4c3CCC4)c3ccc(F)c-2c31 (racemic) [Example 19, (rac)-1-(3-((2,3-dihydro-1H-inden-4-yl)oxy)propyl)-13-fluoro-11,12-dimethyl-4,5,6,7,9,11-hexahydropyrazolo[4′,3′:9,10][1]oxa[6]azacycloundecino[8,7,6-hi]indole-2-carboxylic acid] | > 20 µM | 4.3 µM | 2.9 µM and 4.9 µM | 4.06 µM | 2.62 µM | 1.4e-06 M |  |
| CCc1c2c(nn1C)COCCCCn1c(C(=O)O)c(CCCOc3cccc4c3CCCC4)c3ccc(F)c-2c31 (racemic) [Example 29, (rac)-12-ethyl-13-fluoro-11-methyl-1-(3-((5,6,7,8-tetrahydronaphthalen-1-yl)oxy)propyl)-4,5,6,7,9,11-hexahydropyrazolo[4′,3′:9,10][1]oxa[6]azacycloundecino[8,7,6-hi]indole-2-carboxylic acid] | > 20 µM | 2.04 µM | 2.55 µM |  | 2.44 µM | 1.2e-06 M |  |
| CCc1c2c(nn1C)COCCCCn1c(C(=O)O)c(CCCOc3cc(C)c(Cl)c(C)c3)c3ccc(F)c-2c31 (racemic) [Example 31, (rac)-1-(3-(4-chloro-3,5-dimethylphenoxy)propyl)-12-ethyl-13-fluoro-11-methyl-4,5,6,7,9,11-hexahydropyrazolo[4′,3′:9,10][1]oxa[6]azacycloundecino[8,7,6-hi]indole-2-carboxylic acid] | > 20 µM | 6.07 µM | 8.25 µM |  | > 33 µM | 2.9e-06 M |  |
| Cc1nn(C)c2c1-c1c(F)ccc3c(CCCOc4cccc5cc(F)ccc45)c(C(=O)O)n(c13)CCCCOC2 (racemic) [Example 32, (rac)-13-fluoro-1-(3-((6-fluoronaphthalen-1-yl)oxy)propyl)-10,12-dimethyl-4,5,6,7,9,10-hexahydropyrazolo[4′,3′:9,10][1]oxa[6]azacycloundecino[8,7,6-hi]indole-2-carboxylic acid] | > 20 µM | 4.85 µM | 4.8 µM and 4.75 µM | 4.27 µM | 3.98 µM | 1.1e-06 M |  |
| Cc1nn(C)c2c1-c1c(F)ccc3c(CCCOc4cccc5c4CCCC5)c(C(=O)O)n(c13)CCCCOC2 (racemic) [Example 34, (rac)-13-fluoro-10,12-dimethyl-1-(3-((5,6,7,8-tetrahydronaphthalen-1-yl)oxy)propyl)-4,5,6,7,9,10-hexahydropyrazolo[4′,3′:9,10][1]oxa[6]azacycloundecino[8,7,6-hi]indole-2-carboxylic acid] | > 20 µM | 11.6 µM | 12.3 µM |  | 6.92 µM | 2.6e-06 M |  |
| CCc1nn(C)c2c1-c1c(F)ccc3c(CCCOc4cccc5c4CCCC5)c(C(=O)O)n(c13)CCCCOC2 (racemic) [Example 44, (rac)-12-ethyl-13-fluoro-10-methyl-1-(3-((5,6,7,8-tetrahydronaphthalen-1-yl)oxy)propyl)-4,5,6,7,9,10-hexahydropyrazolo[4′,3′:9,10][1]oxa[6]azacycloundecino[8,7,6-hi]indole-2-carboxylic acid] | > 20 µM | 9.83 µM |  |  | 7.41 µM | 1.9e-06 M |  |
| CCc1nn(C)c2c1-c1c(F)ccc3c(CCCOc4cccc5c4CCC5)c(C(=O)O)n(c13)CCCCOC2 (racemic) [Example 45, (rac)-1-(3-((2,3-dihydro-1H-inden-4-yl)oxy)propyl)-12-ethyl-13-fluoro-10-methyl-4,5,6,7,9,10-hexahydropyrazolo[4′,3′:9,10][1]oxa[6]azacycloundecino[8,7,6-hi]indole-2-carboxylic acid] | > 20 µM | 6.2 µM | 6.56 µM |  | 6.45 µM | 1.9e-06 M |  |
| CCc1nn(C)c2c1-c1c(F)ccc3c(CCCOc4cc(C)c(Cl)c(C)c4)c(C(=O)O)n(c13)CCCCOC2 (racemic) [Example 46, (rac)-1-(3-(4-chloro-3,5-dimethylphenoxy)propyl)-12-ethyl-13-fluoro-10-methyl-4,5,6,7,9,10-hexahydropyrazolo[4′,3′:9,10][1]oxa[6]azacycloundecino[8,7,6-hi]indole-2-carboxylic acid] | > 20 µM | 21 µM | 11.4 µM | 9.1 µM | 8.17 µM | 3.1e-06 M |  |
| Cc1c2c(nn1C)COCCCCn1c(C(=O)O)c(CCCOc3ccc(F)c4ccccc34)c3ccc(F)c-2c31 (single isomer, unassigned; enantiomer 1) [Example 16, 4-fluoro-7-{3-[(4-fluoronaphthalen-1-yl)oxy]propyl}-2,3-dimethyl-2,10,11,12,13,15-hexahydro-pyrazolo[4′,3′:9,10][1,6]oxazacycloundecino[8,7,6-hi]indole-8-carboxylic acid (enantiomer 1)] | > 20 µM |  | 3.55 µM | 6.95 µM |  |  | 1.4e-06 M |
| CCc1nn(C)c2c1-c1c(F)ccc3c(CCCOc4ccc(F)c5ccccc45)c(C(=O)O)n(c13)CCCCOC2 (single isomer, unassigned; enantiomer 1) [Example 42, 3-ethyl-4-fluoro-7-{3-[(4-fluoronaphthalen-1-yl)oxy]propyl}-1-methyl-1,10,11,12,13,15-hexahydropyrazolo[4′,3′:9,10][1,6]oxazacycloundecino[8,7,6-hi]indole-8-carboxylic acid (enantiomer 1)] | > 20 µM |  | 5.79 µM | 6.96 µM |  |  | 2e-06 M |

— patent US11286263B2, “Macrocyclic fluorine substituted indole derivatives” (The Broad Institute, Inc., priority 2017, dated 2022)
